Columns and labels:
[1] = test system: three bacterium and two fungal strains; experiment: Testing of commercially available alkyldimonium hydroxypropyl alkylglucosides for biocidal efficacy in aqueous buffered borate solution; format: cell-based
[2] = test system: A. Niger; experiment: Preservative efficacy response study against A. Niger in borate-buffered solution; format: cell-based; settings: S-1218 in the solutions with or without PHMB
Excerpt: A “preservative-effective amount” is defined as a sufficient amount of alkyldimonium hydroxypropyl alkylglucoside of general formula I or general formula II in the formulation to reduce the cell population by two log orders after 7 days of the five following microorganisms, Staphylococcus aureus, Pseudomonas aeruginosa, Eschrechia coli, Candida albicans and Aspergillus niger, or that which will prevent the growth of fungal bioburden by ±0.5 log.
Data obtained from a preservative efficacy response study of S-1218 with or without the stated concentrations of PHMB in borate-buffered solution containing 0.85 wt. % sodium borate, 0.06 wt. % boric acid and 0.26 wt. % sodium chloride is provided in Tables 3A and 3B. The study also included a response against S. Aureus, P. Aeruginosa, E. Coli, and C. Albicans.
Data obtained from a preservative efficacy response study of select alkyldimonium hydroxypropyl alkylglucosides of general formula I or general formula II in borate-buffered solution containing 0.85 wt. % sodium borate, 0.06 wt. % boric acid and 0.26 wt. % sodium chloride is provided in Table 4. Example 9 includes 0.2 wt. % S-1218; Example 10 includes 0.2 wt. % S-1010P; Example 11 includes 0.2 wt. % L-1210P; and Example 12 includes 0.2 wt. % S-1010. The study also included a response against S. Aureus, P. Aeruginosa, E. Coli, and C. Albicans.

Row | Substance | biocidal efficacy (in words) [1] | biocidal control of A. Niger (in words) [2]
1 | stearyl dimonium hydropropyl laurylglucoside | relatively high increase in biocidal efficacy | –
2 | stearyldimonium hydropropyl decylglucoside | relatively high increase in biocidal efficacy | –
3 | stearyldimonium hydroxypropyl laurylglucosides chloride [Example S-1218] | – | significant biocidal control

From patent US20100075919A1, “COMPOSITIONS COMPRISING ALKYLDIMONIUM HYDROXYPROPYL ALKYLGLUCOSIDES” (priority 2008, published 2010)
